This passage reports TGI results from PubChem BioAssay (NCI).

Molecules are shown by their SMILES.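 Values below derive from 48-hour exposures of cells grown in 96-well plates, with endpoints linearly interpolated between the two concentrations bracketing the appropriate inhibition level. The concentration for full growth arrest is given as TGI.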 A value given as a limit tells only on which side of the number the result lay.

Common to all, as to experiment: NCI tumour cell line growth inhibition, 48 h
Test [1] concerns 786-0 renal.
Test [2] deals with COLO 205 colon.
Test [3] deals with HOP-62 NSCLC.
For test [4], the system named is LOX IMVI melanoma.
Test [5] relates to M14 melanoma.
The test system of test [6] is OVCAR-3 ovarian.
For test [7], the system named is RXF 393 renal.
Test [8] has as its system SNB-19 CNS.
The subject of test [9] is U251 CNS.
Test [10] relates to XF 498 CNS.

With `COc1ccc2[nH]c(-c3ccc(O)cc3)cc(=O)c2c1`, the TGI in test [1] is more than 58.1 µM; in test [2], 6.25 µM; in test [3], more than 58.8 µM; in test [4], more than 90 µM; in [5] it was 82.1 µM; in test [6], 13.1 µM. Moreover, the TGI in [7] is 5.16 µM; in [8] it was more than 100 µM; in [9] it was 9.29 µM; in test [10], 13.7 µM.
Regarding `CC(C)(C)NCC(COc1ccc([N+](=O)[O-])cc1)OP(c1ccccc1)c1ccccc1` (stereo not drawn), the TGI is more than 100 µM in test [1]; more than 100 µM in test [2]; more than 100 µM in [3]; 26.7 µM in test [4]; more than 100 µM in test [5]; more than 100 µM in test [6]. For the same compound, the TGI in [7] is more than 100 µM; in [8] it was more than 100 µM; in [9], more than 100 µM; in test [10] it was 67.3 µM.
Take `O=C(CC1(O)C(=O)Nc2c(Cl)ccc(Cl)c21)c1ccc(Cl)cc1Cl` (stereo not drawn): the TGI came out at 27.8 µM in test [1]; 31.7 µM in test [2]; 59.5 µM in [3]; 28.3 µM in test [4]; 25.9 µM in test [5]; 30.9 µM in test [6]. The TGI was 42.3 µM in [7], more than 100 µM in [8], 21.9 µM in [9] and 33.9 µM in [10].
Regarding `C=C1C(=O)C23C(O)C1CC[C@H]2C12CCCC(C)(COC(C)=O)[C@H]1[C@H](O)[C@]3(O)OC2` (stereo partly drawn), the TGI in test [1] amounted to 2.24 µM; in test [2], 4.14 µM; in [3], 8.56 µM; in test [4], 3.17 µM; in test [5] it was 2.84 µM; in test [6], 2.99 µM. The TGI in test [7] was found to be 1.58 µM; in [8], 7.03 µM; in test [9] it was 5.4 µM; in test [10], 2.71 µM.
As to `Cn1c(=O)nc2n(-c3ccc(Cl)c(C(F)(F)F)c3)c3ccccc3nc-2c1=O`, the TGI is more than 100 µM in test [1]; 49.9 µM in test [2]; more than 100 µM in test [3]; more than 100 µM in test [4]; more than 91.3 µM in test [5]; more than 100 µM in [6]. Further, the TGI in [7] was more than 100 µM; in test [8], 63.1 µM; in [9], more than 100 µM; in [10], more than 78.1 µM.
As to `CCCCCCCCCCCCCCCCCCOCC(COCCOCC[N+]1(CCCCCC(=O)[O-])CCCC1)Oc1ncccn1` (stereo not drawn), the TGI amounted to 22.2 µM in [1]; 3.77 µM in [2]; 5.24 µM in test [3]; 13 µM in test [4]; 22.7 µM in test [5]; 20.4 µM in [6]. Moreover, the TGI in test [7] amounted to 10.4 µM; in test [8], 16.5 µM; in test [9], 8.5 µM; in test [10], 9.46 µM.
For `C[C@]12C/C(=C/O)C(=O)C(O)=C1CC[C@@H]1C2CC[C@@]2(C)C1CC[C@@H]2O` (stereo partly drawn), the TGI was 87.5 µM in test [1]; 44.5 µM in test [2]; more than 100 µM in [3]; 30.9 µM in test [4]; 38.1 µM in [5]; 44.4 µM in test [6]. Besides, the figures for the TGI in test [7], in test [8] and in [10] were 36.3 µM, 36.1 µM and 33 µM, respectively.
Take `N#C/C(=C1\SC(N=Nc2ccc(Cl)cc2)C(=O)N1c1ccccc1)c1nc2ccccc2[nH]1` (stereo not drawn): the TGI in [1] is 26.8 µM; in [2], more than 100 µM; in test [3], 35.4 µM; in test [4], 57.4 µM; in test [5], more than 100 µM; in [6], 69 µM. Also, the TGI is 67.9 µM in test [7], 89.6 µM in [8], 44.8 µM in test [9] and 84.8 µM in [10].
`CCCCCCCCCCCC1CC(=O)NCCCN(C)CCCCN(C)CCCN1C` (stereo not drawn): the TGI was determined as 2.89 µM in test [1]; 3.03 µM in test [2]; 3.04 µM in [3]; 2.84 µM in test [4]; 3.24 µM in test [5]; 3.07 µM in test [6]. In addition, the TGI in test [7] is 3.02 µM; in test [8], 3.1 µM; in [9], 3.04 µM; in [10], 3.08 µM.
As to `CCCCCCC(C)CCCCCCCCCCC(=O)O` (stereo not drawn), the TGI in test [1], in [2], in [3], in [4], in test [5] and in test [6] was more than 100 µM throughout. Besides, the TGI in [7], in test [8], in test [9] and in test [10] was more than 100 µM in each case.
Turning to `C=C1C2Oc3ccccc3C1N(c1ccccc1)O2` (stereo not drawn), the TGI was more than 100 µM in [1]; more than 100 µM in [2]; more than 100 µM in test [3]; 36.2 µM in [4]; 67.1 µM in test [5]; more than 100 µM in test [6]. The TGI was more than 100 µM in [7], more than 100 µM in [8], 90 µM in [9] and 43.5 µM in test [10].
On to `COC(=O)C1C(=O)N(CCc2c[nH]c3ccccc23)C[C@@H]2CCC(=O)C[C@H]12` (stereo partly drawn), for which the TGI in [1], in test [2], in [3], in test [4], in test [5] and in [6] was more than 100 µM each time. The TGI in test [7], in test [8], in test [9] and in [10] was more than 100 µM throughout.
On to `CC(C)(C)OC(=O)NC1CCCC1=O` (stereo not drawn), for which the TGI in test [1], in [3], in test [4], in test [5], in test [6] and in [7] was more than 100 µM throughout. Also, the TGI in test [8], in test [9] and in test [10] was more than 100 µM each time.
Turning to `CCOC(OC1=C(C#N)CCCC1)C(CC)[Se]c1ccccc1` (stereo not drawn), the TGI is 31.6 µM in test [1]; 40.6 µM in [2]; more than 100 µM in test [3]; 21.9 µM in [4]; more than 100 µM in test [5]; 54.6 µM in [6]. The TGI is 31.1 µM in [7], more than 100 µM in [8], 44.3 µM in [9] and 46.5 µM in test [10].
With `C=CCNC(=O)N(CCC)CCCC(NC(C)=O)C(=O)NCc1ccccc1` (stereo not drawn), the TGI in [1], in [2], in test [3], in test [4], in [5] and in test [6] was more than 100 µM throughout. In addition, the TGI in test [7], in [8], in [9] and in test [10] was more than 100 µM each time.
